# Reference: publication PMC4904373, “Azole Antifungal Sensitivity of Sterol 14α-Demethylase (CYP51) and CYP5218 from Malassezia globosa” (Scientific Reports, 2016)
# Several values for one entry are separate records, joined by “and”; a condition that tells them apart may be missing. Identical values can stand only once. Like-named read-outs stand apart in the source and are kept apart here.
# Tests used:
# M. globosa [1] = tested on: M. globosa
# M. globosa [2] = conditions: cited from earlier work
# M. globosa CYP51 [3] = molecular target: T1, M. globosa CYP51 (Malassezia globosa, UniProt A8Q3I7, A7V/E4L/G6A/I5L/L2A/Q3L/W8F); experiment: biochemical; type: binding
# T1 sequence (A8Q3I7 whole entry L2A/Q3L/E4L/I5L/G6A/A7V/W8F): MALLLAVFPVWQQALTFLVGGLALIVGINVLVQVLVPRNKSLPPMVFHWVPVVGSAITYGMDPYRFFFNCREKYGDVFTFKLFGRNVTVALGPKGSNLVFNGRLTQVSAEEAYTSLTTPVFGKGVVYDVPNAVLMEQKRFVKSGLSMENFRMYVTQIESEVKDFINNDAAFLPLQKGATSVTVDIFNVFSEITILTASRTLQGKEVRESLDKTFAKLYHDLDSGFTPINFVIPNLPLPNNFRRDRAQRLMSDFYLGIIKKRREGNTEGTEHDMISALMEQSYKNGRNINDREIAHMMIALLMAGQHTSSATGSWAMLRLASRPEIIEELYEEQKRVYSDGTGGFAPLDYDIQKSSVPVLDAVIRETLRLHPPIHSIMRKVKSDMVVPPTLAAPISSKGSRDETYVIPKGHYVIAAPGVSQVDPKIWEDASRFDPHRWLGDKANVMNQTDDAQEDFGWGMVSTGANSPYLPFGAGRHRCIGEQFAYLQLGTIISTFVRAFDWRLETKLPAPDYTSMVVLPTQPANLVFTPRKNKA
# Procedure: (§1) Reduced carbon monoxide difference spectroscopy[46][47] and absolute spectra between 700 and 300 nm were used to determine cytochrome P450 concentrations. Substrate and azole binding studies were performed[31][48] using 2.5 mM stock sterol solutions in 40% (wt/vol) (2-hydroxypropyl)-β-cyclodextrin (HPCD), 4 mg ml^−1 solutions of fatty acids in dimethylformamide (DMF), and stock 0.05, 0.1 and 0.2 mg ml^−1 solutions of azole antifungal agents in dimethylsulfoxide (DMSO). Sterols were titrated against 5 μM CYP51, fatty acids were titrated against 4 μM CYP5218 and azole antifungal agents were titrated against 2 μM CYP51 and CYP5218. The absorbance difference spectrum between 500 and 350 nm was determined after each incremental addition of ligand with saturation curves constructed from ΔApeak-trough against ligand concentration. The dissociation constants (Kd) for sterols and fatty acids were determined by non-linear regression (Levenberg-Marquardt algorithm) using the Michaelis-Menten equation. The dissociation constants of the enzyme-azole complex were determined by non-linear regression (Levenberg-Marquardt algorithm) using a rearrangement of the Morrison equation for tight ligand binding. ProFit 6.1.12 (QuantumSoft, Zurich, Switzerland) was used for curve-fitting data. All ligand-binding studies were performed at 22 ± 2 °C and in triplicate. All spectral determinations were made using a Hitachi U-3310 UV/VIS spectrophotometer (San Jose, California).
# M. globosa CYP5218 = M. globosa CYP5218 (Malassezia globosa, UniProt A8QCD3, A3L/A5L/F6A/I7V/S4L/S8F); experiment: biochemical; type: binding; conditions: for azole binding to CYP5218 (binding spectra): 2 μM CYP5218, result in words
# Procedure: as §1
# M. globosa CYP51 [4] = molecular target: T1, M. globosa CYP51; experiment: biochemical
# Procedure: Sterol metabolites were recovered by extraction with ethyl acetate followed by derivatization with 0.1 ml N,O-bis(trimethylsilyl)trifluoroacetamide (BSTFA) : trimethylchlorosilane (TMCS) (99:1) and 0.3 ml anhydrous pyridine (2 h at 80 °C) prior to analysis by gas chromatography mass spectrometry (GC/MS)[53].
# M. globosa ATCC MYA-4612 = experiment: M. globosa MIC100 determination; type: cell-based, Malassezia globosa; conditions: for MIC: Malassezia globosa, 168 h, read-out: MIC100
# Procedure: M. globosa ATCC MYA-4612 was grown for 7 days at 30 °C in modified Dixon medium (3.6% malt extract, 2% desiccated ox-bile, 1% Tween 40, 0.6% peptone, 0.2% glycerol, 0.2% oleic acid, pH adjusted to 6 with HCl) until a culture density of 1.5 × 10^5 cells ml^−1 was obtained. Cells from 3 ml of stock culture were harvested, suspended in 1 ml of saline and used to inoculate 30 ml of fresh modified Dixon medium for use as M. globosa inoculums in MIC determinations. Stock azole concentrations of 1600, 800, 400, 200, 100, 50, 25, 12.5, 6.25, 3.125 and 0 μg ml^−1 were prepared in DMSO. These were diluted ten-fold with fresh modified Dixon media and 20 μl of the diluted azole solutions were then mixed with 180 μl of M. globosa inoculum in microtiter plate wells to yield final azole concentrations of 16, 8, 4, 2, 1, 0.5, 0.25, 0.125, 0.0625, 0.03125 and 0 μg ml^−1. The microtiter plates were incubated at 30 °C for 7 days and then read. Each azole MIC100 determination was performed in triplicate.
# C. albicans CYP51 = molecular target: C. albicans CYP51; set-up: method as in PMID 23826084; conditions: cited from earlier work
# M. globosa [5] = experiment: Sterol analysis of azole-treated M. globosa; type: cell-based, Malassezia globosa; conditions: 4 μg ml^−1 ketaminazole
# Procedure: Individual sterols were identified by reference to relative retention times, mass ions and fragmentation patterns. Sterol composition was calculated using peak areas.
# H. sapiens CYP51 = molecular target: H. sapiens CYP51; set-up: method as in PMID 23826084; conditions: cited from earlier work
smiles,measurement,setting,value
C=CC[C@@H]1/C=C(\C)C[C@H](C)C[C@H](OC)[C@H]2O[C@@](O)(C(=O)C(=O)N3CCCC[C@H]3C(=O)O[C@H](/C(C)=C/[C@@H]3CC[C@@H](O)[C@H](OC)C3)[C@H](C)[C@@H](O)CC1=O)[C@H](C)C[C@@H]2OC [FK-506],concentration above which cytotoxic towards M. globosa,M. globosa [1],above 0.0625 μg ml^−1
OC(Cn1cncn1)(Cn1cncn1)c1ccc(F)cc1F [fluconazole],MIC values previously reported,M. globosa [2],4 µg/mL
same,Kd,M. globosa CYP51 [3],11 ± 4 nM
same,azole binding to CYP5218 (binding spectra),M. globosa CYP5218,did not bind
same,azole binding to CYP5218 (binding spectra),M. globosa CYP5218; listed as Fluconazole,no reproducible binding spectra
same,IC50,"M. globosa CYP51 [4]; IC50, 0.5 μM CYP51, CYP51:AfCPR1 1:2, 50 μM lanosterol as substrate",206 nM and 200 nM
same,MIC,"M. globosa ATCC MYA-4612; modified Dixon medium, 30 °C, 7 days",64 µg/mL
CC(=O)N1CCN(c2ccc(NCC3COC(Cn4ccnc4)(c4ccc(Cl)cc4Cl)O3)cc2)CC1 (centres unmarked) [ketaminazole],Kd,C. albicans CYP51,43 nM
same,Kd,"M. globosa CYP51 [3]; azole titrated against 2 μM CYP51, Morrison equation",3 ± 1 nM
same,azole binding to CYP5218 (binding spectra),M. globosa CYP5218,type II binding spectra
same,Kd,M. globosa CYP5218; azole titrated against 2 μM CYP5218,~12000 nM and ~11700 nM
same,IC50,"M. globosa CYP51 [4]; 0.5 μM CYP51, CYP51:AfCPR1 1:2, 50 μM lanosterol as substrate",321 ± 42 nM
same,growth inhibition,M. globosa ATCC MYA-4612; 4 μg ml^−1,partial inhibition of growth
same,MIC,M. globosa ATCC MYA-4612,8 µg/mL
same,"sterol fraction (%) 4,4-dimethylzymosterol",M. globosa [5],0.62%
same,sterol fraction (%) Eburicol,M. globosa [5],14.63%
same,sterol fraction (%) Episterol,M. globosa [5],0.63%
same,"sterol fraction (%) Ergosta-5,7-dienol",M. globosa [5],13.85%
same,sterol fraction (%) Ergosta-7-enol,M. globosa [5],5.00%
same,"sterol fraction (%) Ergosta-8,22-dienol",M. globosa [5],5.35%
same,sterol fraction (%) Ergosta-8-enol,M. globosa [5],0%
same,sterol fraction (%) Ergosterol,M. globosa [5],54.64%
same,sterol fraction (%) Fecosterol,M. globosa [5],0.54%
same,sterol fraction (%) Obtusifoliol,M. globosa [5],3.52%
same,sterol fraction (%) Cholesterol,M. globosa [5]; cholesterol assimilated from growth media,1.21%
same,Kd,H. sapiens CYP51,731 nM
